Reference: US11919897B2, “Inhibitors of human immunodeficiency virus replication” (VIIV HEALTHCARE UK (No. 5) LIMITED, priority 2018, dated 2024)

Assays:
[1] = system: recombinant NL4-3 virus (nef section replaced with Renilla luciferase gene) in MT-2 cells; test: HIV cell culture assay (antiviral activity, luciferase readout in infected MT-2 cells); assay type: cell-based; details: Renilla, NL43
Experimental: HIV cell culture assay-MT-2 cells, 293T cells and the proviral DNA clone of NL4-3 virus were obtained from the NIH AIDS Research and Reference Reagent Program. MT-2 cells were propagated in RPMI 1640 media supplemented with 10% heat inactivated fetal bovine serum (FBS), 100 μg/ml penicillin G and up to 100 units/mL streptomycin. The 293T cells were propagated in DMEM media supplemented with 10% heat inactivated FBS, 100 μg/mL penicillin G and 100 μg/mL streptomycin. A recombinant NL4-3 proviral clone, in which a section of the nef gene was replaced with the Renilla luciferase gene, was used to make the reference virus used in these studies. The recombinant virus was prepared through transfection of the recombinant NL4-3 proviral clone into 293T cells using Transit-293 Transfection Reagent from Minis Bio LLC (Madison, WI). Supernatent was harvested after 2-3 days and the amount of virus present was titered in MT-2 cells using luciferase enzyme activity as a marker by measuring luciferase enzyme activity. Luciferase was quantitated using the EnduRen Live Cell Substrate from Promega (Madison, WI). Antiviral activities of compounds toward the recombinant virus were quantified by measuring luciferase activity in MT-2 cells infected for 4-5 days with the recombinant virus in the presence of serial dilutions of the compound.
The 50% effective concentration (EC50) was calculated by using the exponential form of the median effect equation where (Fa)=1/[1+(ED50/drug conc.)m] (Johnson V A, Byington R T. Infectivity Assay. In Techniques in HIV Research. ed. Aldovini A, Walker B D. 71-76. New York: Stockton Press. 1990).

[2] = Compound cytotoxicity, XTT-based colorimetric assay; assay type: cell-based; details: human; uninfected MT2 cells, day 4, XTT assay
Experimental: Compound cytotoxicity and the corresponding CC50 values were determined using the same protocol as described in the antiviral assay except that uninfected cells were used. Cytotoxicity was assessed on day 4 in uninfected MT2 cells by using an XTT (2,3-bis[2-Methoxy-4-nitro-5-sulfophenyl]-2H-tetrazolium-5-carboxyanilide inner salt)-based colorimetric assay (Sigma-Aldrich, St Louis, Mo.).

SMILES | EC50 [1] [nM] | CC50 at 4 days [2] [nM]
CC(C)COCCOc1ccc2c(=O)n(-c3ccc(Cl)c4c(NS(C)(=O)=O)nn(C)c34)c([C@H](Cc3cc(F)cc(F)c3)NC(=O)Cn3nc(C(F)F)c4c3C(F)(F)[C@@H]3C[C@H]43)nc2n1 (atropisomer, axis not shown; (P)) [Example 25, N—((S)-1-((3P)-3-(4-chloro-1-methyl-3-(methylsulfonamido)-1H-indazol-7-yl)-7-(2-isobutoxyethoxy)-4-oxo-3,4-dihydropyrido[2,3-d]pyrimidin-2-yl)-2-(3,5-difluorophenyl)ethyl)-2-((3bS,4aR)-3-(difluoromethyl)-5,5-difluoro-3b,4,4a,5-tetrahydro-1H-cyclopropa[3,4]cyclopenta[1,2-c]pyrazol-1-yl)acetamide] | 0.054 | > 100
Cn1nc(NS(C)(=O)=O)c2c(Cl)ccc(-n3c([C@H](Cc4cc(F)cc(F)c4)NC(=O)Cn4nc(C(F)F)c5c4C(F)(F)[C@@H]4C[C@H]54)nc4nc(OCc5ccccn5)ccc4c3=O)c21 (atropisomer, axis not shown; (P)) [Example 30, N—((S)-1-((3P)-3-(4-chloro-1-methyl-3-(methylsulfonamido)-1H-indazol-7-yl)-4-oxo-7-(pyridin-2-ylmethoxy)-3,4-dihydropyrido[2,3-d]pyrimidin-2-yl)-2-(3,5-difluorophenyl)ethyl)-2-((3bS,4aR)-3-(difluoromethyl)-5,5-difluoro-3b,4,4a,5-tetrahydro-1H-cyclopropa[3,4]cyclopenta[1,2-c]pyrazol-1-yl)acetamide] | 0.043 | > 100
Cn1nc(NS(C)(=O)=O)c2c(Cl)ccc(-n3c([C@H](Cc4cc(F)cc(F)c4)NC(=O)Cn4nc(C(F)F)c5c4C(F)(F)[C@@H]4C[C@H]54)nc4nc(OCCOC5CC5)ccc4c3=O)c21 (atropisomer, axis not shown; (P)) [Example 29, N—((S)-1-((3P)-3-(4-chloro-1-methyl-3-(methylsulfonamido)-1H-indazol-7-yl)-7-(2-cyclopropoxyethoxy)-4-oxo-3,4-dihydropyrido[2,3-d]pyrimidin-2-yl)-2-(3,5-difluorophenyl)ethyl)-2-((3bS,4aR)-3-(difluoromethyl)-5,5-difluoro-3b,4,4a,5-tetrahydro-1H-cyclopropa[3,4]cyclopenta[1,2-c]pyrazol-1-yl)acetamide] | 0.034 | > 100
Cn1nc(NS(C)(=O)=O)c2c(Cl)ccc(-n3c([C@H](Cc4cc(F)cc(F)c4)NC(=O)Cn4nc(C(F)F)c5c4C(F)(F)[C@@H]4C[C@H]54)nc4nc(OCC5CCCC5)ccc4c3=O)c21 (atropisomer, axis not shown; (P)) [Example 2, N—((S)-1-((3P)-3-(4-chloro-1-methyl-3-(methylsulfonamido)-1H-indazol-7-yl)-7-(cyclopentylmethoxy)-4-oxo-3,4-dihydropyrido[2,3-d]pyrimidin-2-yl)-2-(3,5-difluorophenyl)ethyl)-2-((3bS,4aR)-3-(difluoromethyl)-5,5-difluoro-3b,4,4a,5-tetrahydro-1H-cyclopropa[3,4]cyclopenta[1,2-c]pyrazol-1-yl)acetamide] | 0.06 | > 1000
Cn1nc(NS(C)(=O)=O)c2c(Cl)ccc(-n3c([C@H](Cc4cc(F)cc(F)c4)NC(=O)Cn4nc(C(F)F)c5c4C(F)(F)[C@@H]4C[C@H]54)nc4nc(OCCc5nccs5)ccc4c3=O)c21 (atropisomer, axis not shown; (P)) [Example 18, N—((S)-1-((3P)-3-(4-chloro-1-methyl-3-(methylsulfonamido)-1H-indazol-7-yl)-4-oxo-7-(2-(thiazol-2-yl)ethoxy)-3,4-dihydropyrido[2,3-d]pyrimidin-2-yl)-2-(3,5-difluorophenyl)ethyl)-2-((3bS,4aR)-3-(difluoromethyl)-5,5-difluoro-3b,4,4a,5-tetrahydro-1H-cyclopropa[3,4]cyclopenta[1,2-c]pyrazol-1-yl)acetamide] | 0.038 | > 500
C[C@@H](Oc1ccc2c(=O)n(-c3ccc(Cl)c4c(NS(C)(=O)=O)nn(C)c34)c([C@H](Cc3cc(F)cc(F)c3)NC(=O)Cn3nc(C(F)F)c4c3C(F)(F)[C@@H]3C[C@H]43)nc2n1)C1CCCC1 (atropisomer, axis not shown; (P)) [Example 16, N—((S)-1-((3P)-3-(4-chloro-1-methyl-3-(methylsulfonamido)-1H-indazol-7-yl)-7-((R)-1-cyclopentylethoxy)-4-oxo-3,4-dihydropyrido[2,3-d]pyrimidin-2-yl)-2-(3,5-difluorophenyl)ethyl)-2-((3bS,4aR)-3-(difluoromethyl)-5,5-difluoro-3b,4,4a,5-tetrahydro-1H-cyclopropa[3,4]cyclopenta[1,2-c]pyrazol-1-yl)acetamide] | 0.22 | > 500
Cn1nc(NS(C)(=O)=O)c2c(Cl)ccc(-n3c([C@H](Cc4cc(F)cc(F)c4)NC(=O)Cn4nc(C(F)F)c5c4C(F)(F)[C@@H]4C[C@H]54)nc4nc(O)ccc4c3=O)c21 (atropisomer, axis not shown; (P)) [Example 1, N—((S)-1-((3P)-3-(4-chloro-1-methyl-3-(methylsulfonamido)-1H-indazol-7-yl)-7-hydroxy-4-oxo-3,4-dihydropyrido[2,3-d]pyrimidin-2-yl)-2-(3,5-difluorophenyl)ethyl)-2-((3bS,4aR)-3-(difluoromethyl)-5,5-difluoro-3b,4,4a,5-tetrahydro-1H-cyclopropa[3,4]cyclopenta[1,2-c]pyrazol-1-yl)acetamide] | 2.7 | > 1000
CC(C)(C)CCOc1ccc2c(=O)n(-c3ccc(Cl)c4c(NS(C)(=O)=O)nn(CC(F)F)c34)c([C@H](Cc3cc(F)cc(F)c3)NC(=O)Cn3nc(C(F)F)c4c3C(F)(F)[C@@H]3C[C@H]43)nc2n1 (atropisomer, axis not shown; (P)) [Example 14, N—((S)-1-((3P)-3-(4-chloro-1-(2,2-difluoroethyl)-3-(methylsulfonamido)-1H-indazol-7-yl)-7-(3,3-dimethylbutoxy)-4-oxo-3,4-dihydropyrido[2,3-d]pyrimidin-2-yl)-2-(3,5-difluorophenyl)ethyl)-2-((3bS,4aR)-3-(difluoromethyl)-5,5-difluoro-3b,4,4a,5-tetrahydro-1H-cyclopropa[3,4]cyclopenta[1,2-c]pyrazol-1-yl)acetamide] | 0.12 | > 500
CC(C)OCCOc1ccc2c(=O)n(-c3ccc(Cl)c4c(NS(C)(=O)=O)nn(C)c34)c([C@H](Cc3cc(F)cc(F)c3)NC(=O)Cn3nc(C(F)F)c4c3C(F)(F)[C@@H]3C[C@H]43)nc2n1 (atropisomer, axis not shown; (P)) [Example 4, N—((S)-1-((3P)-3-(4-chloro-1-methyl-3-(methylsulfonamido)-1H-indazol-7-yl)-7-(2-isopropoxyethoxy)-4-oxo-3,4-dihydropyrido[2,3-d]pyrimidin-2-yl)-2-(3,5-difluorophenyl)ethyl)-2-((3bS,4aR)-3-(difluoromethyl)-5,5-difluoro-3b,4,4a,5-tetrahydro-1H-cyclopropa[3,4]cyclopenta[1,2-c]pyrazol-1-yl)acetamide] | < 0.05 | > 1000
CO[C@H](C)COc1ccc2c(=O)n(-c3ccc(Cl)c4c(NS(C)(=O)=O)nn(C)c34)c([C@H](Cc3cc(F)cc(F)c3)NC(=O)Cn3nc(C(F)F)c4c3C(F)(F)[C@@H]3C[C@H]43)nc2n1 [Example 31, N—((S)-1-((3P)-3-(4-chloro-1-methyl-3-(methylsulfonamido)-1H-indazol-7-yl)-7-((R)-2-methoxypropoxy)-4-oxo-3,4-dihydropyrido[2,3-d]pyrimidin-2-yl)-2-(3,5-difluorophenyl)ethyl)-2-((3bS,4aR)-3-(difluoromethyl)-5,5-difluoro-3b,4,4a,5-tetrahydro-1H-cyclopropa[3,4]cyclopenta[1,2-c]pyrazol-1-yl)acetamide] | 0.019 | > 100
CCC(C)(C)CCOc1ccc2c(=O)n(-c3ccc(Cl)c4c(NS(C)(=O)=O)nn(C)c34)c([C@H](Cc3cc(F)cc(F)c3)NC(=O)Cn3nc(C(F)F)c4c3C(F)(F)[C@@H]3C[C@H]43)nc2n1 (atropisomer, axis not shown; (P)) [Example 13, N—((S)-1-((3P)-3-(4-chloro-1-methyl-3-(methylsulfonamido)-1H-indazol-7-yl)-7-((3,3-dimethylpentyl)oxy)-4-oxo-3,4-dihydropyrido[2,3-d]pyrimidin-2-yl)-2-(3,5-difluorophenyl)ethyl)-2-((3bS,4aR)-3-(difluoromethyl)-5,5-difluoro-3b,4,4a,5-tetrahydro-1H-cyclopropa[3,4]cyclopenta[1,2-c]pyrazol-1-yl)acetamide] | 0.17 | 
Cn1nc(NS(C)(=O)=O)c2c(Cl)ccc(-n3c([C@H](Cc4cc(F)cc(F)c4)NC(=O)Cn4nc(C(F)F)c5c4C(F)(F)[C@@H]4C[C@H]54)nc4nc(OCCCC(C)(C)C)ccc4c3=O)c21 (atropisomer, axis not shown; (P)) [Example 19] | 0.11 | 
